Patent publication EP0598515A1, “Method for herbicidal activity-enhancing, activity-enhanced herbicidal composition and activity-enhancing composition” (ISHIHARA SANGYO KAISHA LTD., priority 1992, dated 1994)
Read-outs that look alike come from different tables or passages of the source.

Columns and labels:
Format in all cases: in vivo
[1] = test system: johnsongrass (Sorghum halepense L.); assay: Test Example 10: pot test on rhizome plants, Example 8 suspension concentrate with Frigate; settings: duplicate; for inhibition at 10 g/ha / inhibition at 20 g/ha / inhibition at 30 g/ha / inhibition at 40 g/ha: Sorghum halepense; for inhibition at 10 g/ha: Compound A 10 g/ha
Method: Rhizomes of johnsongrass (Sorghum halepense L.) induced to germinate were transplanted in 1/150,000-hectare pots filled with upland soil and arranged in a duplicate system. When the johnsongrass plants grew to a 3- to 6-leaf stage, the oil-based suspension concentrate obtained in Example 8 was diluted with 200 liters/hectare of water containing a predetermined amount of Frigate and was applied foliarly to the plants with a small spray gun.
Seventeen days and fifty six days after treatment (D.A.T.) the growth inhibition of plants was evaluated with visual observation in the same manner as in Test Example 1 and are shown in Table 10.

[2] = test system: common cocklebur (Xanthium strumarium L.); assay: Test Example 9: pot test, Example 8 suspension concentrate with Frigate; settings: 22 days after treatment; for inhibition at 40 g/ha: Compound A 40 g/ha
Method: (§1) Velvetleaf (Abutilon theophrasti MEDIC.) and common cocklebur (Xanthium strumarium L.) seeds were sown in 1/1,000,000-hectare pots filled with upland soil and arranged in a duplicate system. When the velvetleaf plants and common cocklebur plants grew to a 2.1- and 2.3-leaf stage, respectively, the oil-based suspension concentrate obtained in Example 8 was diluted with 500 liters/hectare of water containing a predetermined amount of Frigate and was applied foliarly to the plants with a small spray gun.
(§2) Twenty two days after treatment, the growth inhibition of plants was evaluated with visual observation in the same manner as in Test Example 1 and are shown in Table 9.

[3] = test system: Velvetleaf (Abutilon theophrasti MEDIC.); assay: as above; settings: 22 days after treatment; for inhibition at 20 g/ha: Compound A 20 g/ha; for inhibition at 40 g/ha: Compound A 40 g/ha
Method: as §1, §2

[4] = test system: green foxtail (Setaria viridis L.); assay: Test Example 13: field plot test, growth inhibition; settings: Example 8 suspension concentrate, 27 days after treatment, field plots; for inhibition at 40 g/ha: Compound A 40 g/ha
Description: (§3) In field plots of 4 m² (1 m × 4 m) unit arranged in a duplicate system, seeds of corn, crabgrass (Digitaria sanguinalis L.) common lambsquarters (Chenopodium album L.), slender amaranth (Amaranthus viridis L.), velvetleaf (Abutilon theophrasti MEDIC.) and common cocklebur (Xanthium strumarium L.) were sown and grown. Also, green foxtail (Setaria viridis L.) and barnyardgrass (Echinochloa crus-galli L.) were allowed to grow spontaneously. When the plants grew to certain stages (corn: 4.2 to 6.0-leaf stage, crabgrass: 3.2 to 5.0-leaf stage, common lambsquarters: 3.0 to 6.0-leaf stage, slender amaranth: 2.0 to 5.0-leaf stage, velvetleaf: 1.5 to 4.0-leaf stage, common cocklebur: cotyledonal to 3.5-leaf stage, green foxtail: 3.0 to 5.0-leaf stage and barnyardgrass: 3.0 to 5.0-leaf stage), the oil-based suspension concentrate obtained in Example 8 was diluted with 200 liters/hectare of water containing a predetermined amount of Frigate and was applied foliarly to the plants with a small spray gun.
(§4) Twenty seven days after treatment, the growth inhibition of plants except for corn plants was evaluated with visual observation in the same manner as in Test Example 1 and are shown in Table 13.

[5] = test system: Velvetleaf (Abutilon theophrasti MEDIC.); assay: as above; settings: 648 h, Example 8 suspension concentrate, 27 days after treatment, field plots; for inhibition at 30 g/ha: Compound A 30 g/ha; for inhibition at 40 g/ha: Compound A 40 g/ha
Description: as §3, §4

[6] = test system: Crabgrass (Digitaria sanguinalis L.); assay: as above; settings: 648 h, Example 8 suspension concentrate, 27 days after treatment, field plots, read-out: Growth Inhibition (%) DS; for inhibition at 30 g/ha: Compound A 30 g/ha; for inhibition at 40 g/ha: Compound A 40 g/ha
Description: as §3, §4

[7] = Frigate 0.25 % by volume, Compound A 10 g/ha, duplicate
[8] = Abutilon theophrasti, 528 h, Frigate 0.125 % by volume, duplicate, read-out: Growth Inhibition (%) Velvetleaf
[9] = Abutilon theophrasti, 528 h, Frigate 0.25 % by volume, duplicate, read-out: Growth Inhibition (%) Velvetleaf
[10] = Abutilon theophrasti, 528 h, Frigate: No addition, duplicate, read-out: Growth Inhibition (%) Velvetleaf
[11] = Frigate 0.2 % by volume, Compound A 20 g/ha
[12] = Frigate: No addition, Compound A 50 g/ha

COc1cc(OC)nc(NC(=O)NS(=O)(=O)c2ncccc2C(=O)N(C)C)n1 [Compound A, N-[(4,6-dimethoxypyrimidin-2-yl)aminocarbonyl]-3-dimethylaminocarbonyl-2-pyridinesulfonamide]
80%: Growth Inhibition (%) of Johnsongrass 17 D.A.T. ([1]; Frigate 0.1 % by volume, Compound A 30 g/ha, 17 days after treatment) | Growth Inhibition (%) of Johnsongrass 17 D.A.T. ([1]; Frigate 0.2 % by volume, Compound A 20 g/ha, 17 days after treatment) | Growth Inhibition (%) of Johnsongrass 17 D.A.T. ([1]; Frigate 0.2 % by volume, Compound A 30 g/ha, 17 days after treatment) | inhibition at 20 g/ha ([2]; Xanthium strumarium, 528 h, Frigate 0.125 % by volume, Compound A 20 g/ha, duplicate, read-out: Growth Inhibition (%) Common Cocklebur) | inhibition at 20 g/ha [3, 9] | inhibition at 20 g/ha ([3]; Abutilon theophrasti, 528 h, Frigate 0.5 % by volume, duplicate, read-out: Growth Inhibition (%) Velvetleaf) | inhibition at 60 g/ha ([3]; Abutilon theophrasti, 528 h, Frigate: No addition, Compound A 60 g/ha, duplicate, read-out: Growth Inhibition (%) Velvetleaf) | inhibition at 50 g/ha ([4]; Setaria viridis, 648 h, Frigate: No addition, Compound A 50 g/ha, read-out: Growth Inhibition (%) SV) | inhibition at 40 g/ha ([6]; Frigate: No addition)
90%: inhibition at 20 g/ha ([1]; 1344 h, Frigate: No addition, Compound A 20 g/ha, 56 days after treatment, read-out: Growth Inhibition (%) of Johnsongrass 56 D.A.T.) | inhibition at 40 g/ha ([3]; Abutilon theophrasti, 528 h, Frigate 0.5 % by volume, read-out: Growth Inhibition (%) Velvetleaf) | inhibition at 40 g/ha ([6]; Frigate 0.2 % by volume)
65%: inhibition at 10 g/ha ([1]; 408 h, Frigate 0.1 % by volume, 17 days after treatment, read-out: Growth Inhibition (%) of Johnsongrass 17 D.A.T.) | inhibition at 20 g/ha ([1]; 408 h, Frigate: No addition, Compound A 20 g/ha, 17 days after treatment, read-out: Growth Inhibition (%) of Johnsongrass 17 D.A.T.) | inhibition at 40 g/ha ([1]; 408 h, Frigate: No addition, Compound A 40 g/ha, 17 days after treatment, read-out: Growth Inhibition (%) of Johnsongrass 17 D.A.T.) | inhibition at 20 g/ha [3, 8] | inhibition at 40 g/ha [3, 10] | inhibition at 30 g/ha ([4]; Setaria viridis, 648 h, Frigate 0.2 % by volume, Compound A 30 g/ha, read-out: Growth Inhibition (%) SV) | inhibition at 30 g/ha ([4]; Setaria viridis, 648 h, Frigate: No addition, Compound A 30 g/ha, read-out: Growth Inhibition (%) SV)
25%: Growth Inhibition (%) Common Cocklebur [2, 7]
55%: inhibition at 20 g/ha [5, 11] | inhibition at 40 g/ha ([5]; Frigate: No addition)
85%: inhibition at 30 g/ha ([1]; 408 h, Frigate 0.2 % by volume, Compound A 30 g/ha, 17 days after treatment, read-out: Growth Inhibition (%) of Johnsongrass 17 D.A.T.) | inhibition at 40 g/ha ([2]; Xanthium strumarium, 528 h, Frigate: No addition, duplicate, read-out: Growth Inhibition (%) Common Cocklebur) | inhibition at 40 g/ha [3, 8] | inhibition at 40 g/ha [3, 9] | inhibition at 30 g/ha ([6]; Frigate 0.1 % by volume) | inhibition at 20 g/ha [6, 11] | inhibition at 30 g/ha ([6]; Frigate 0.2 % by volume) | inhibition at 50 g/ha [6, 12]
95%: inhibition at 20 g/ha ([2]; Xanthium strumarium, 528 h, Frigate 0.25 % by volume, Compound A 20 g/ha, duplicate, read-out: Growth Inhibition (%) Common Cocklebur) | inhibition at 50 g/ha ([2]; Xanthium strumarium, 528 h, Frigate: No addition, Compound A 50 g/ha, duplicate, read-out: Growth Inhibition (%) Common Cocklebur) | inhibition at 40 g/ha ([6]; Frigate 0.1 % by volume)
35%: inhibition at 10 g/ha ([2]; Xanthium strumarium, 528 h, Frigate 0.125 % by volume, Compound A 10 g/ha, duplicate, read-out: Growth Inhibition (%) Common Cocklebur)
70%: inhibition at 10 g/ha ([1]; 408 h, Frigate 0.2 % by volume, 17 days after treatment, read-out: Growth Inhibition (%) of Johnsongrass 17 D.A.T.) | inhibition at 40 g/ha ([4]; Setaria viridis, 648 h, Frigate 0.1 % by volume, read-out: Growth Inhibition (%) SV) | inhibition at 40 g/ha ([4]; Setaria viridis, 648 h, Frigate: No addition, read-out: Growth Inhibition (%) SV) | inhibition at 30 g/ha ([5]; Frigate 0.1 % by volume) | inhibition at 40 g/ha ([5]; Frigate 0.1 % by volume) | inhibition at 30 g/ha ([5]; Frigate 0.2 % by volume) | inhibition at 50 g/ha [5, 12]
20%: inhibition at 20 g/ha [3, 10]
50%: Growth Inhibition (%) Velvetleaf [3, 7]
30%: inhibition at 10 g/ha ([2]; Xanthium strumarium, 528 h, Frigate 0.25 % by volume, Compound A 10 g/ha, duplicate, read-out: Growth Inhibition (%) Common Cocklebur) | inhibition at 10 g/ha ([3]; Abutilon theophrasti, 528 h, Frigate 0.125 % by volume, Compound A 10 g/ha, duplicate, read-out: Growth Inhibition (%) Velvetleaf) | inhibition at 30 g/ha ([5]; Frigate: No addition)
75%: inhibition at 20 g/ha ([1]; 408 h, Frigate 0.1 % by volume, Compound A 20 g/ha, 17 days after treatment, read-out: Growth Inhibition (%) of Johnsongrass 17 D.A.T.) | inhibition at 30 g/ha ([1]; 408 h, Frigate 0.1 % by volume, Compound A 30 g/ha, 17 days after treatment, read-out: Growth Inhibition (%) of Johnsongrass 17 D.A.T.) | inhibition at 20 g/ha ([1]; 408 h, Frigate 0.2 % by volume, Compound A 20 g/ha, 17 days after treatment, read-out: Growth Inhibition (%) of Johnsongrass 17 D.A.T.) | inhibition at 50 g/ha ([3]; Abutilon theophrasti, 528 h, Frigate: No addition, Compound A 50 g/ha, duplicate, read-out: Growth Inhibition (%) Velvetleaf) | inhibition at 40 g/ha ([4]; Setaria viridis, 648 h, Frigate 0.2 % by volume, read-out: Growth Inhibition (%) SV) | inhibition at 40 g/ha ([5]; Frigate 0.2 % by volume) | inhibition at 30 g/ha ([6]; Frigate: No addition)
98%: Growth Inhibition (%) of Johnsongrass 56 D.A.T. ([1]; Frigate 0.2 % by volume, Compound A 30 g/ha, 56 days after treatment) | Growth Inhibition (%) of Johnsongrass 56 D.A.T. ([1]; Frigate: No addition, Compound A 40 g/ha, 56 days after treatment) | inhibition at 20 g/ha ([2]; Xanthium strumarium, 528 h, Frigate 0.5 % by volume, Compound A 20 g/ha, duplicate, read-out: Growth Inhibition (%) Common Cocklebur) | inhibition at 60 g/ha ([2]; Xanthium strumarium, 528 h, Frigate: No addition, Compound A 60 g/ha, duplicate, read-out: Growth Inhibition (%) Common Cocklebur)
100%: inhibition at 10 g/ha ([1]; 1344 h, Frigate 0.1 % by volume, 56 days after treatment, read-out: Growth Inhibition (%) of Johnsongrass 56 D.A.T.) | inhibition at 20 g/ha ([1]; 1344 h, Frigate 0.1 % by volume, Compound A 20 g/ha, 56 days after treatment, read-out: Growth Inhibition (%) of Johnsongrass 56 D.A.T.) | inhibition at 30 g/ha ([1]; 1344 h, Frigate 0.1 % by volume, Compound A 30 g/ha, 56 days after treatment, read-out: Growth Inhibition (%) of Johnsongrass 56 D.A.T.) | inhibition at 10 g/ha ([1]; 1344 h, Frigate 0.2 % by volume, 56 days after treatment, read-out: Growth Inhibition (%) of Johnsongrass 56 D.A.T.) | inhibition at 20 g/ha ([1]; 1344 h, Frigate 0.2 % by volume, Compound A 20 g/ha, 56 days after treatment, read-out: Growth Inhibition (%) of Johnsongrass 56 D.A.T.) | inhibition at 30 g/ha ([1]; 1344 h, Frigate 0.2 % by volume, Compound A 30 g/ha, 56 days after treatment, read-out: Growth Inhibition (%) of Johnsongrass 56 D.A.T.) | inhibition at 40 g/ha ([1]; 1344 h, Frigate: No addition, Compound A 40 g/ha, 56 days after treatment, read-out: Growth Inhibition (%) of Johnsongrass 56 D.A.T.) | inhibition at 40 g/ha ([2]; Xanthium strumarium, 528 h, Frigate 0.125 % by volume, duplicate, read-out: Growth Inhibition (%) Common Cocklebur) | inhibition at 40 g/ha ([2]; Xanthium strumarium, 528 h, Frigate 0.25 % by volume, duplicate, read-out: Growth Inhibition (%) Common Cocklebur) | inhibition at 40 g/ha ([2]; Xanthium strumarium, 528 h, Frigate 0.5 % by volume, read-out: Growth Inhibition (%) Common Cocklebur)
60%: inhibition at 30 g/ha ([1]; 408 h, Frigate: No addition, Compound A 30 g/ha, 17 days after treatment, read-out: Growth Inhibition (%) of Johnsongrass 17 D.A.T.) | inhibition at 10 g/ha ([2]; Xanthium strumarium, 528 h, Frigate 0.5 % by volume, Compound A 10 g/ha, duplicate, read-out: Growth Inhibition (%) Common Cocklebur) | inhibition at 10 g/ha ([3]; Abutilon theophrasti, 528 h, Frigate 0.5 % by volume, Compound A 10 g/ha, duplicate, read-out: Growth Inhibition (%) Velvetleaf) | inhibition at 20 g/ha ([4]; Setaria viridis, 648 h, Frigate 0.2 % by volume, Compound A 20 g/ha, read-out: Growth Inhibition (%) SV)
40%: Growth Inhibition (%) Common Cocklebur ([2]; Frigate: No addition, Compound A 20 g/ha, duplicate) | inhibition at 10 g/ha ([3]; Abutilon theophrasti, 528 h, Frigate 0.25 % by volume, Compound A 10 g/ha, duplicate, read-out: Growth Inhibition (%) Velvetleaf) | Growth Inhibition (%) SV ([4]; Frigate 0.1 % by volume, Compound A 30 g/ha)
